Test results reported in US12539292B2, “BRM targeting compounds and associated methods of use” (Arvinas Operations, Inc., priority 2018, dated 2026).
Where two headings read alike, the source gives them in different places. Blank lines part the entries; values can stand above or below the compound they belong to.

Molecular target: T1, BRM (Homo sapiens, UniProt P51531)
T1 construct: In-Cell Western Screen of BRM Degradation in SW1573 Cells; endogenous in cells; host or cells: SW1573
Experiment: In-cell Western screen of BRM degradation in SW1573 cells (Dmax and DC50)
Assay type: cell-based
Outline: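 Adherent SW1573 cultures exposed to test compounds for 18-20 h were processed for in-cell Western after PFA fixation and detergent permeabilization. BRM degradation was reported as Dmax and DC50.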

[1] = BRM degradation, SW1573 cells, read-out: DC50
[2] = BRM degradation, SW1573 cells, read-out: Dmax (% degraded)
[3] = SW1573, % degraded, when tested at the top concentration of between 0.3 and 10 μM, read-out: BRM Dmax (%)
[4] = target protein degradation, read-out: BRM DC50
[5] = BRM degradation, SW1573 cells, tested at the top concentration of between 0.3 and 10 μM, read-out: Dmax (%) (% degraded)
[6] = BRM degradation, SW1573 cells, when tested at the top concentration of between 0.3 and 10 μM, read-out: Dmax (%) (% degraded)

T1 sequence (P51531 whole entry): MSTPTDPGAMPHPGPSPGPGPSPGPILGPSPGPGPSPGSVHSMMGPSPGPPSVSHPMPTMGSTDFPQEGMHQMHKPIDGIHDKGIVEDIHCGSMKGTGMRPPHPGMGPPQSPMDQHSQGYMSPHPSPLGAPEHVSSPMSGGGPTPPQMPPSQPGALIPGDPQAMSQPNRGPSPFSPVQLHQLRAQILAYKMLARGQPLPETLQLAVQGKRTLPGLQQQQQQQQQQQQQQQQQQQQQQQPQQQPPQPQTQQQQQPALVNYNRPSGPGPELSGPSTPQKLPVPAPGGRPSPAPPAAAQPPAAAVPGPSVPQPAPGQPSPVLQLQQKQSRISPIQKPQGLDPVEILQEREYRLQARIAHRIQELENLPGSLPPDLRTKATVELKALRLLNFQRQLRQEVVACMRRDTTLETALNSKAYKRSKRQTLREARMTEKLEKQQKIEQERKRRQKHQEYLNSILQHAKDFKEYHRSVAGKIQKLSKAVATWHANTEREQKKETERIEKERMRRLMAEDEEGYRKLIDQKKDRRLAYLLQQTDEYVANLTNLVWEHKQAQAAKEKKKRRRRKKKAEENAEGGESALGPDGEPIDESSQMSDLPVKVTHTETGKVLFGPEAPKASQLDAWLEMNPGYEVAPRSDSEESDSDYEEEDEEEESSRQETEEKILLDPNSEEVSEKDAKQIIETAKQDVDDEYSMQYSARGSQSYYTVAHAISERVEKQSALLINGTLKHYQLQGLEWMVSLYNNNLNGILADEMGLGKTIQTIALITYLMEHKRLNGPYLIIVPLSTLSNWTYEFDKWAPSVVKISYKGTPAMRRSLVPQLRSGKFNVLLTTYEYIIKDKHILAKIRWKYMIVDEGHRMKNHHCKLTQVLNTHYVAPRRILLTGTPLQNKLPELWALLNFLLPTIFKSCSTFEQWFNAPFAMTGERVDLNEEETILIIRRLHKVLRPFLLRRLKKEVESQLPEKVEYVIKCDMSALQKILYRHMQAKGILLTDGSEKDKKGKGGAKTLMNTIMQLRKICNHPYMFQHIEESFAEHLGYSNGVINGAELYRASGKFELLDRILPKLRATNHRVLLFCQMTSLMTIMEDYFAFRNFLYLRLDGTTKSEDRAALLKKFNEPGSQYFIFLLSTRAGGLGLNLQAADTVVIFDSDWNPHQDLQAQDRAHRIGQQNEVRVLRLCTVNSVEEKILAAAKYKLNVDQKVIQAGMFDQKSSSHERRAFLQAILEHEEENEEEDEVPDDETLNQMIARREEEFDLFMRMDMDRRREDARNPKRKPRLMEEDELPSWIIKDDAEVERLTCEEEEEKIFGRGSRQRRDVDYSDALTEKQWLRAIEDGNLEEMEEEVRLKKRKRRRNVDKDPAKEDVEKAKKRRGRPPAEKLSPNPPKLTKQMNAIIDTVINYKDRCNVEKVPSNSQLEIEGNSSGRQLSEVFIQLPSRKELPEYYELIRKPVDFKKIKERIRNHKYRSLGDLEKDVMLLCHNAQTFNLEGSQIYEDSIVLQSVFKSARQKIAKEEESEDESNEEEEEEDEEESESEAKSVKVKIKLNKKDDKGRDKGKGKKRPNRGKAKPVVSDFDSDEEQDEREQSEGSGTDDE

DC50 (BRM degradation, SW1573 cells, Table 2D, read-out: *DC50): > 30 nM
Compound: Cc1cc([C@@H](C(=O)N2C[C@H](O)C[C@H]2C(=O)N[C@@H](C)c2ccc(-c3scnc3C)cc2)[C@H](C)COCCCn2cc(-c3cc(-c4ccccc4O)nnc3N)cn2)on1 [compound 559, (2S,4R)-1-((2S,3S)-4-(3-(4-(3-amino-6-(2-hydroxyphenyl)pyridazin-4-yl)-1H-pyrazol-1-yl)propoxy)-3-methyl-2-(3-methylisoxazol-5-yl)butanoyl)-4-hydroxy-N-((S)-1-(4-(4-methylthiazol-5-yl)phenyl)ethyl)pyrrolidine-2-carboxamide]

DC50 [1]: < 2.5 nM
Dmax [2]: > 75%
Compound: Cc1nccn1-c1ccc([C@H](C)NC(=O)[C@@H]2C[C@@H](O)CN2C(=O)[C@@H](c2cc(N3CCC(CN4CCC(O[C@H]5C[C@H](C#C[C@@H](C)n6cc(-c7cc(-c8ccccc8O)nnc7N)cn6)C5)CC4)CC3)no2)C(C)C)cc1 (single isomer, unassigned) [compound 638]

Compound: CC(C)[C@H](C(=O)N1C[C@H](O)C[C@H]1C(=O)N[C@@H](C)c1ccc(C#N)cc1)c1cc(OCC#Cc2ncc(O[C@H]3C[C@H](Oc4cc(N5C6CCC5CN(c5cc(-c7ccccc7O)nnc5N)C6)ccn4)C3)cn2)no1 [compound 386, (2S,4R)-1-((2S)-2-(3-((3-(5-((1r,3S)-3-((4-(3-(3-amino-6-(2-hydroxyphenyl)pyridazin-4-yl)-3,8-diazabicyclo[3.2.1]octan-8-yl)pyridin-2-yl)oxy)cyclobutoxy)pyrimidin-2-yl)prop-2-yn-1-yl)oxy)isoxazol-5-yl)-3-methylbutanoyl)-N-((S)-1-(4-cyanophenyl)ethyl)-4-hydroxypyrrolidine-2-carboxamide]
Dmax [3]: > 75%
DC50 [4]: 10 to 30 nM

Compound: Cc1ncsc1-c1ccc(CNC(=O)[C@@H]2C[C@@H](O)CN2C(=O)[C@H](c2cc(OCC#Cc3ccc(O[C@H]4C[C@H](Oc5cc(N6C7CCC6CN(c6cc(-c8ccccc8O)nnc6N)C7)ccn5)C4)cn3)no2)C(C)C)cc1 [compound 220, (2S,4R)-1-((2S)-2-(3-((3-(5-((1r,3S)-3-((4-(3-(3-amino-6-(2-hydroxyphenyl)pyridazin-4-yl)-3,8-diazabicyclo[3.2.1]octan-8-yl)pyridin-2-yl)oxy)cyclobutoxy)pyridin-2-yl)prop-2-yn-1-yl)oxy)isoxazol-5-yl)-3-methylbutanoyl)-4-hydroxy-N-(4-(4-methylthiazol-5-yl)benzyl)pyrrolidine-2-carboxamide]
DC50 [1]: 10 to 30 nM
Dmax [5]: > 75%

Compound: Cc1ncsc1-c1ccc([C@@H](NC(=O)[C@@H]2C[C@@H](O)CN2C(=O)[C@H](c2cc(OCCN3CCN(CCOc4cc(N5C6CCC5CN(c5cc(-c7ccccc7O)nnc5N)C6)ccn4)CC3)no2)C(C)C)C(=O)N(C)C2CCC2)cc1 [compound 245, (2S,4R)-1-((2S)-2-(3-(2-(4-(2-((4-(3-(3-amino-6-(2-hydroxyphenyl)pyridazin-4-yl)-3,8-diazabicyclo[3.2.1]octan-8-yl)pyridin-2-yl)oxy)ethyl)piperazin-1-yl)ethoxy)isoxazol-5-yl)-3-methylbutanoyl)-N-((R)-2-(cyclobutyl(methyl)amino)-1-(4-(4-methylthiazol-5-yl)phenyl)-2-oxoethyl)-4-hydroxypyrrolidine-2-carboxamide]
DC50 [1]: 2.5 to 10 nM
Dmax [5]: > 75%

Compound: Cc1ncsc1-c1ccc([C@H](C)NC(=O)[C@@H]2C[C@@H](O)CN2C(=O)[C@@H](c2cc(OCCN3CCC(O[C@H]4C[C@H](C#C[C@@H](C)n5cc(-c6cc(-c7ccccc7O)nnc6N)cn5)C4)CC3)no2)C(C)C)cc1 [compound 414, (2S,4R)-1-((R)-2-(3-(2-(4-((1R,3R)-3-((R)-3-(4-(3-amino-6-(2-hydroxyphenyl)pyridazin-4-yl)-1 H-pyrazol-1-yl)but-1-yn-1-yl)cyclobutoxy)piperidin-1-yl)ethoxy)isoxazol-5-yl)-3-methylbutanoyl)-4-hydroxy-N-((S)-1-(4-(4-methylthiazol-5-yl)phenyl)ethyl)pyrrolidine-2-carboxamide]
Dmax [3]: > 75%
DC50 (degradation of BRM, read-out: BRM DC50): < 2.5 nM

Compound: Cc1ncsc1-c1ccc([C@H](C)NC(=O)[C@@H]2C[C@@H](O)CN2C(=O)[C@H](c2cc(OCCOCCOCCCCN3CCC4(CCN(c5cc(-c6ccccc6O)nnc5N)CC4)C3)no2)C(C)C)cc1 [compound 73, (2S,4R)-1-((S)-2-(3-(2-(2-(4-(8-(3-amino-6-(2-hydroxyphenyl)pyridazin-4-yl)-2,8-diazaspiro[4.5]decan-2-yl)butoxy)ethoxy)ethoxy)isoxazol-5-yl)-3-methylbutanoyl)-4-hydroxy-N-((S)-1-(4-(4-methylthiazol-5-yl)phenyl)ethyl)pyrrolidine-2-carboxamide]
DC50 [1]: > 30 nM

Compound: Cc1ncsc1-c1ccc([C@H](C)NC(=O)[C@@H]2C[C@@H](O)CN2C(=O)[C@@H](c2cc(OCCOCCOCCCCN3CCC4(CC3)CCN(c3cc(-c5ccccc5O)nnc3N)CC4)no2)C(C)C)cc1 [compound 68, (2S,4R)-1-((R)-2-(3-(2-(2-(4-(9-(3-amino-6-(2-hydroxyphenyl)pyridazin-4-yl)-3,9-diazaspiro[5.5]undecan-3-yl)butoxy)ethoxy)ethoxy)isoxazol-5-yl)-3-methylbutanoyl)-4-hydroxy-N-((S)-1-(4-(4-methylthiazol-5-yl)phenyl)ethyl)pyrrolidine-2-carboxamide]
DC50 [1]: 2.5 to 10 nM
Dmax [6]: > 75%

Compound: Cc1ncsc1-c1ccc([C@H](C)NC(=O)[C@@H]2C[C@@H](O)CN2C(=O)[C@@H](c2cc(N3CCC(OC4CCN(C[C@H]5C[C@H](Oc6cc(N7C8CCC7CN(c7cc(-c9ccccc9O)nnc7N)C8)ccn6)C5)CC4)CC3)no2)C(C)C)cc1 [compound 474, (2S,4R)-1-((2R)-2-(3-(4-((1-(((1r,3r)-3-((4-(3-(3-amino-6-(2-hydroxyphenyl)pyridazin-4-yl)-3,8-diazabicyclo[3.2.1]octan-8-yl)pyridin-2-yl)oxy)cyclobutyl)methyl)piperidin-4-yl)oxy)piperidin-1-yl)isoxazol-5-yl)-3-methylbutanoyl)-4-hydroxy-N-((S)-1-(4-(4-methylthiazol-5-yl)phenyl)ethyl)pyrrolidine-2-carboxamide]
Dmax [3]: > 75%
DC50 [4]: < 2.5 nM

DC50 [1]: > 30 nM
Dmax [6]: > 75%
Compound: Cc1ncsc1-c1ccc(CNC(=O)[C@@H]2C[C@@H](O)CN2C(=O)[C@@H](NC(=O)COCCOCCOCCOCCOCCOCCn2cc(-c3cc(-c4ccccc4O)nnc3N)cn2)C(C)(C)C)cc1 [compound 3, (2S,4R)-1-((S)-23-(4-(3-amino-6-(2-hydroxyphenyl)pyridazin-4-yl)-1H-pyrazol-1-yl)-2-(tert-butyl)-4-oxo-6,9,12,15,18,21-hexaoxa-3-azatricosanoyl)-4-hydroxy-N-(4-(4-methylthiazol-5-yl)benzyl)pyrrolidine-2-carboxamide]

Compound: CC(C)[C@H](C(=O)N1C[C@H](O)C[C@H]1C(=O)N[C@@H](C)c1ccc(-c2nccn2C)cc1)c1cc(OCCN2CCN(CCOc3cc(N4C5CCC4CN(c4cc(-c6ccccc6O)nnc4N)C5)ccn3)CC2)no1 [compound 159, (2S,4R)-1-((2S)-2-(3-(2-(4-(2-((4-(3-(3-amino-6-(2-hydroxyphenyl)pyridazin-4-yl)-3,8-diazabicyclo[3.2.1]octan-8-yl)pyridin-2-yl)oxy)ethyl)piperazin-1-yl)ethoxy)isoxazol-5-yl)-3-methylbutanoyl)-4-hydroxy-N-((S)-1-(4-(1-methyl-1H-imidazol-2-yl)phenyl)ethyl)pyrrolidine-2-carboxamide]
DC50 [1]: > 30 nM
Dmax [5]: < 50%

Compound: Cc1ncsc1-c1ccc([C@H](C)NC(=O)[C@@H]2C[C@@H](O)CN2C(=O)[C@@H](c2cc(N3CCC(C#CCN4CCC(Oc5cc(N6C7CCC6CN(c6cc(-c8ccccc8O)nnc6N)C7)ccn5)CC4)CC3)no2)C(C)C)cc1 [compound 677, (2S,4R)-1-((2R)-2-(3-(4-(3-(4-((4-(3-(3-amino-6-(2-hydroxyphenyl)pyridazin-4-yl)-3,8-diazabicyclo[3.2.1]octan-8-yl)pyridin-2-yl)oxy)piperidin-1-yl)prop-1-yn-1-yl)piperidin-1-yl)isoxazol-5-yl)-3-methylbutanoyl)-4-hydroxy-N-((S)-1-(4-(4-methylthiazol-5-yl)phenyl)ethyl)pyrrolidine-2-carboxamide]
DC50 [1]: < 2.5 nM
Dmax [2]: > 75%

Compound: CC(=O)NCc1ncsc1-c1ccc([C@H](C)NC(=O)[C@@H]2C[C@@H](O)CN2C(=O)C(c2cc(OCCN3CCN(CCOc4cc(N5C6CCC5CN(c5cc(-c7ccccc7O)nnc5N)C6)ccn4)CC3)no2)C(C)C)cc1 (stereo partly drawn) [compound 174, (2S,4R)-N-((S)-1-(4-(4-(acetamidomethyl)thiazol-5-yl)phenyl)ethyl)-1-(2-(3-(2-(4-(2-((4-(3-(3-amino-6-(2-hydroxyphenyl)pyridazin-4-yl)-3,8-diazabicyclo[3.2.1]octan-8-yl)pyridin-2-yl)oxy)ethyl)piperazin-1-yl)ethoxy)isoxazol-5-yl)-3-methylbutanoyl)-4-hydroxypyrrolidine-2-carboxamide]
DC50 [1]: 10 to 30 nM
Dmax [5]: > 75%

Compound: Cc1ncsc1-c1ccc([C@H](C)NC(=O)[C@@H]2C[C@@H](O)CN2C(=O)[C@@H](c2cc(N3CCN(C(C)[C@H]4C[C@H](Oc5cc(N6C7CCC6CN(c6cc(-c8ccccc8O)nnc6N)C7)ccn5)C4)CC3)no2)C(C)C)cc1 (stereo partly drawn) [compound 704, (2S,4R)-1-((2R)-2-(3-(4-((1S)-1-((1r,3S)-3-((4-(3-(3-amino-6-(2-hydroxyphenyl)pyridazin-4-yl)-3,8-diazabicyclo[3.2.1]octan-8-yl)pyridin-2-yl)oxy)cyclobutyl)ethyl)piperazin-1-yl)isoxazol-5-yl)-3-methylbutanoyl)-4-hydroxy-N-((S)-1-(4-(4-methylthiazol-5-yl)phenyl)ethyl)pyrrolidine-2-carboxamide]
DC50 [1]: < 2.5 nM
Dmax [2]: > 75%
